Experimental data from BindingDB's records for patent US9796706 (Imago Pharmaceuticals, 2017).

Columns and labels:
Assay in all cases: HTRF Assay
[1] = biological target: Mitogen-activated protein kinase 10 (Homo sapiens, UniProt P53779)
Description: (§1) The aJNK solution (20 μl/well) was added to the plate and the plate was shaken. The enzyme was incubated with the compound at RT for 10 min.(5) ATP/substrate solution preparation: ATP and substrate stocks were thawed on ice. […] The ATP/substrate (20 μl/well) was added to the plate and the plate was shaken. The plate was incubated at RT for 15 min. Note: In an exemplary assay, the final ATP concentration was about 1 mM.(6) EDTA preparation: 30 mM EDTA was prepared using 0.5M EDTA stock and assay buffer #1. The EDTA (10 μl/well) was added to the plate to quench the enzyme reaction and the plate was shaken well.(7) Detection reagent preparation: Eu-63 and SA-XL stocks were thawed on ice. […] The Eu-63/SA-XL solution (20 μl/well) was added to the plate and the plate was shaken. The plate was incubated at RT for 1 hr before reading the plate on LJL using ratiometric method named HTRF.

[2] = biological target: Mitogen-activated protein kinase 8 (Homo sapiens, UniProt P45983)
Description: as §1

[3] = biological target: Mitogen-activated protein kinase 9 (Homo sapiens, UniProt P45984)
Description: as §1

Measured: IC50

Sequence of Mitogen-activated protein kinase 8 (P45983 whole entry): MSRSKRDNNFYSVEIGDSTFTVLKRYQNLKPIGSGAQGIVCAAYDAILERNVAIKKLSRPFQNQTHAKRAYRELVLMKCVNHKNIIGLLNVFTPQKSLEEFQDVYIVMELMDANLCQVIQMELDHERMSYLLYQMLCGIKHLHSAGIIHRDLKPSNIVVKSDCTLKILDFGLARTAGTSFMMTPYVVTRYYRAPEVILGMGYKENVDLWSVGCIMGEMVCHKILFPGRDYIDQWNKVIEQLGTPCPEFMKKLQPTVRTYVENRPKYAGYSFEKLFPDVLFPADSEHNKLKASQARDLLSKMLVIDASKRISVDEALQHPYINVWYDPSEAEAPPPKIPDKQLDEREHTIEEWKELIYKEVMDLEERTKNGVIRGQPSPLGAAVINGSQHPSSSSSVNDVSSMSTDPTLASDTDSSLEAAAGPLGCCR
Sequence of Mitogen-activated protein kinase 10 (P53779 whole entry): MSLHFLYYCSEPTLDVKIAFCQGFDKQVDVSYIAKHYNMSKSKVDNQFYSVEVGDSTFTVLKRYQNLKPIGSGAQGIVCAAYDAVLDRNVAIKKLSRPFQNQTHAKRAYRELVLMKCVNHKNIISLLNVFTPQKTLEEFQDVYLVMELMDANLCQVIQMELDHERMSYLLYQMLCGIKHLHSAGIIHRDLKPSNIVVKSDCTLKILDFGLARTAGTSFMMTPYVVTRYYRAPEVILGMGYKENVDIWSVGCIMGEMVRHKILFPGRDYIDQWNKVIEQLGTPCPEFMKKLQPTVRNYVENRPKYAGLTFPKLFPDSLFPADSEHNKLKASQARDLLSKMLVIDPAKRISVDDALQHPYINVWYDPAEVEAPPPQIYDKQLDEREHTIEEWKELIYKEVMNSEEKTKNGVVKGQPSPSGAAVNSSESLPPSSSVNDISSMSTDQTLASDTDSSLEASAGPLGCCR
Sequence of Mitogen-activated protein kinase 9 (P45984 whole entry): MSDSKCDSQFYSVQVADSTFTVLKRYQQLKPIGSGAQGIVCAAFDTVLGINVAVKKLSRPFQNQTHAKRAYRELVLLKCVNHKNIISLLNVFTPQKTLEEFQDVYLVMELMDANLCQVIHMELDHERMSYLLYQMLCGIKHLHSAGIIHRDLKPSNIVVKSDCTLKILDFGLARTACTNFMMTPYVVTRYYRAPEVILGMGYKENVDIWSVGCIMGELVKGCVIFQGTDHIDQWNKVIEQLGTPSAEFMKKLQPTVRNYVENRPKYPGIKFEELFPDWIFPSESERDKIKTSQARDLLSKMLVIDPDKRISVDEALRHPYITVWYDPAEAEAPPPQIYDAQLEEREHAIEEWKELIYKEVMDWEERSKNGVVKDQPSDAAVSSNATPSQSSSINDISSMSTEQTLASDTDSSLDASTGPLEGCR

O=C(Cn1c(=O)ccc2cc(C(F)(F)F)ccc21)N(CCCN1CCCC1)c1scc(Cl)c1-c1nc[nH]n1 [US9796706, Compound 162]
in the range around 5.05 µM: all assays above

CN(C)CCN(C(=O)Cn1c(=O)ccc2cc(C(F)(F)F)ccc21)c1scc(Cl)c1-c1nc[nH]n1 [US9796706, Compound 158]
in the range around 5.05 µM: all assays above
